Test results published in ChEMBL document CHEMBL1152652, “Bioorganic synthesis of end-capped anti-HIV peptides by simultaneous cyanocysteine-mediated cleavages of recombinant proteins” (Bioorg Med Chem, 2009).
Where a SMILES comes first, the peptide text is derived from it. The star is where a group is joined. NH(2-oxoazepan-3S-yl) = O=C1NCCCC[C@@H]1N*; Aspartimide = O=C1C[C@H](N*)C(=O)N1; X1 = N=C1N[C@H](C(=O)*)CS1

What was measured:
HeLa = experiment: Cytotoxicity against human HeLa cells after 48 hrs up to 10 uM by MAGI assay; type: cell-based
[1] = test system: Human immunodeficiency virus 1; experiment: Antiviral activity against HIV1 NL4-3 infected in human HeLa cells assessed as inhibition of replication after 48 hrs by MAGI assay; type: functional, organism-based; settings: Human immunodeficiency virus 1, NL4-3, HeLa
Serum = experiment: Metabolic stability in 50% mouse serum assessed as degradation after 24 hrs; type: ADME, cell-free

EC50 [1]	Activity (Serum)	Compound	Activity (HeLa)
0.48 nM	Unstable	CC[C@H](C)[C@H](NC(=O)[C@H](CC(C)C)NC(=O)[C@H](CCC(=O)O)NC(=O)[C@H](CCC(=O)O)NC(=O)[C@@H](NC(=O)[C@H](CCCCN)NC(=O)[C@H](CCCCN)NC(=O)[C@@H](NC(=O)[C@H](Cc1ccc(O)cc1)NC(=O)[C@H](CCC(=O)O)NC(=O)[C@H](CCC(=O)O)NC(=O)[C@@H](NC(=O)[C@H](CCCCN)NC(=O)[C@H](CCCNC(=N)N)NC(=O)[C@H](CC(=O)O)NC(=O)[C@H](Cc1c[nH]c2ccccc12)NC(=O)[C@H](CCC(=O)O)NC(=O)[C@H](CCSC)NC(=O)[C@H](Cc1c[nH]c2ccccc12)NC(=O)[C@@H]1CSC(=N)N1)[C@@H](C)CC)[C@@H](C)O)[C@@H](C)CC)C(=O)N[C@@H](CCCCN)C(=O)N[C@@H](CCCCN)C(=O)N[C@@H](CO)C(=O)N[C@@H](CCC(N)=O)C(=O)N[C@@H](CCC(=O)O)C(=O)N[C@@H](CCC(N)=O)C(=O)N[C@@H](CCC(N)=O)C(=O)N[C@@H](CCC(=O)O)C(=O)N[C@@H](CCCCN)C(=O)N[C@@H](CC(N)=O)C(=O)N[C@@H](CCC(=O)O)C(=O)N[C@@H](CCCCN)C(=O)N[C@@H](CCC(=O)O)C(=O)N[C@@H](CC(C)C)C(=O)N[C@@H](CCCCN)C(=O)N[C@H]1CC(=O)NC1=O (X1-WMEWDRKIEEYTKKIEELIKKSQEQQEKNEKELK-Aspartimide)	Non-toxic
0.58 nM	Stable	CC[C@H](C)[C@H](NC(=O)[C@H](CC(C)C)NC(=O)[C@H](CCC(=O)O)NC(=O)[C@H](CCC(=O)O)NC(=O)[C@@H](NC(=O)[C@H](CCCCN)NC(=O)[C@H](CCCCN)NC(=O)[C@@H](NC(=O)[C@H](Cc1ccc(O)cc1)NC(=O)[C@H](CCC(=O)O)NC(=O)[C@H](CCC(=O)O)NC(=O)[C@@H](NC(=O)[C@H](CCCCN)NC(=O)[C@H](CCCNC(=N)N)NC(=O)[C@H](CC(=O)O)NC(=O)[C@H](Cc1c[nH]c2ccccc12)NC(=O)[C@H](CCC(=O)O)NC(=O)[C@H](CCSC)NC(=O)[C@H](Cc1c[nH]c2ccccc12)NC(=O)[C@@H]1CSC(=N)N1)[C@@H](C)CC)[C@@H](C)O)[C@@H](C)CC)C(=O)N[C@@H](CCCCN)C(=O)N[C@@H](CCCCN)C(=O)N[C@@H](CO)C(=O)N[C@@H](CCC(N)=O)C(=O)N[C@@H](CCC(=O)O)C(=O)N[C@@H](CCC(N)=O)C(=O)N[C@@H](CCC(N)=O)C(=O)N[C@@H](CCC(=O)O)C(=O)N[C@@H](CCCCN)C(=O)N[C@@H](CC(N)=O)C(=O)N[C@@H](CCC(=O)O)C(=O)N[C@@H](CCCCN)C(=O)N[C@@H](CCC(=O)O)C(=O)N[C@@H](CC(C)C)C(=O)N[C@@H](CCCCN)C(=O)N[C@H]1CCCCNC1=O (X1-WMEWDRKIEEYTKKIEELIKKSQEQQEKNEKELK-{NH(2-oxoazepan-3S-yl)})	Non-toxic
0.68 nM	–	H-WMEWDRKIEEYTKKIEELIKKSQEQQEKNEKELK-OH	–

Compound	EC50 [1]	Activity (Serum)	Activity (HeLa)
Ac-WMEWDRKIEEYTKKIEELIKKSQEQQEKNEKELK-NH2	0.6 nM	–	–
